Data as given in US20080306076A1, “MODULATION OF CHEMOSENSORY RECEPTORS AND LIGANDS ASSOCIATED THEREWITH” (SENOMYX, INC., priority 2007, published 2008).

What was measured:
hT1R1/hT1R3 = biological target: T1, hT1R1/hT1R3 (Homo sapiens, UniProt Q7RTX1); assay: In vitro hT1R1/hT1R3 enhancement assay (FLIPR): shift of the monosodium glutamate EC50 (EC50R); type: cell-based; conditions: EC50 of monosodium glutamate without / with test compound
T1 construct: expressed in transfected cells; host or cells: HEK293 derivative stably expressing Gα15, clone I-17, mifepristone-induced
T1 sequence (Q7RTX1 21-841): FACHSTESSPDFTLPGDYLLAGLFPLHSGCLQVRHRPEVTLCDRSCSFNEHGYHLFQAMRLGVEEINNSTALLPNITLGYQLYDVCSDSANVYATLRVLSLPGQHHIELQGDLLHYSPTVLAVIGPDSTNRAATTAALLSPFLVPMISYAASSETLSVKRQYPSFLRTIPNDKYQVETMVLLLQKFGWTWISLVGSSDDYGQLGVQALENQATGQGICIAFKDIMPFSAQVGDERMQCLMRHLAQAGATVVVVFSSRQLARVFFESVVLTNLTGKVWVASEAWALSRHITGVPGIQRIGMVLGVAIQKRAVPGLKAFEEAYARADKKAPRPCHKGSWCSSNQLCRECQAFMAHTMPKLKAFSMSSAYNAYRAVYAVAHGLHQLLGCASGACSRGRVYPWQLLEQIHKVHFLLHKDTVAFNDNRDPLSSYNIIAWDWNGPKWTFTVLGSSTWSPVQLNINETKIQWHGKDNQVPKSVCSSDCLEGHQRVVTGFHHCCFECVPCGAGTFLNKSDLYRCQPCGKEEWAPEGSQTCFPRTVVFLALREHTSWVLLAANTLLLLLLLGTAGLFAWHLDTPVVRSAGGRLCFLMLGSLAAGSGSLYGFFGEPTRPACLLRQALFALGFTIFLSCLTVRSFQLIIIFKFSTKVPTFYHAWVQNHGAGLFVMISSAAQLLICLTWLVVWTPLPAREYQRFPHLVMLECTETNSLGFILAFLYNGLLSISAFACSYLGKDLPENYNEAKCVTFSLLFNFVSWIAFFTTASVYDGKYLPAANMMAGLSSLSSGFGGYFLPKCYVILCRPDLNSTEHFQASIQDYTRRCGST
T1 sequence (Q7RTX0 21-852 partner): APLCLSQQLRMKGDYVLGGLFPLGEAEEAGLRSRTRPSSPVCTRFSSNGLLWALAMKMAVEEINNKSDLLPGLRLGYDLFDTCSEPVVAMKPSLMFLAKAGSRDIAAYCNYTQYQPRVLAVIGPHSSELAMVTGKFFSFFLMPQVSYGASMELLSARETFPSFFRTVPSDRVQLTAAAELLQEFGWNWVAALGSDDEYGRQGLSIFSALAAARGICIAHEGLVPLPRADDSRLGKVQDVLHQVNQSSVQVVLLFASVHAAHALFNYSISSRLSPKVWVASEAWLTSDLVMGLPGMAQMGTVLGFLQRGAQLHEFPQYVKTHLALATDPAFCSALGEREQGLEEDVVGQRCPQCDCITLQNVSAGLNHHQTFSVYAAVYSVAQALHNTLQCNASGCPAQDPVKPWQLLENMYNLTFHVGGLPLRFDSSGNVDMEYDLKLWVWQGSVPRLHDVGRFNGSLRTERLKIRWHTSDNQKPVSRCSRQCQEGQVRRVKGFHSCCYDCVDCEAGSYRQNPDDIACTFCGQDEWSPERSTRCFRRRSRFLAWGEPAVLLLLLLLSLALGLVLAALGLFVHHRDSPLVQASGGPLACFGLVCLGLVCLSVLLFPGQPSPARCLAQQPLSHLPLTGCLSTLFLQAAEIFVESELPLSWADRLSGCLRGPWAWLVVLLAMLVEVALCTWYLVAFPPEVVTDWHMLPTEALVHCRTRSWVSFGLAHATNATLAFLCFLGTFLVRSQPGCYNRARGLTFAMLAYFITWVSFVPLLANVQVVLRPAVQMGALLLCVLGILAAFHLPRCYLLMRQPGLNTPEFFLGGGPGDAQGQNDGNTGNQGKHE
Experimental: An HEK293 cell line derivative (See e.g., Chandrashekar, et al., Cell (2000) 100: 703-711) which stably expresses Gα15 and hT1R1/hT1R3 under an inducible promoter (see e.g., International Publication No. WO 03/001876 A2) was used in association with identifying compounds with umami tasting properties.
Compounds were initially selected based on activity in the hT1R1/hT1R3-HEK293-Gα15 cell line. Activity was determined using an automated fluorometric imaging assay on a FLIPR instrument (Fluorometric Intensity Plate Reader, Molecular Devices, Sunnyvale, Calif.) (designated FLIPR assay). Cells from one clone (designated clone I-17) were seeded into 384-well plates (at approximately 48,000 cells per well) in a medium containing Dulbecco's modified Eagle's medium (DMEM) supplemented with GlutaMAX (Invitrogen, Carlsbad, Calif.), 10% dialyzed fetal bovine serum (Invitrogen, Carlsbad, Calif.), 100 Units/ml Penicillin G, 100 μg/ml Streptomycin (Invitrogen, Carlsbad, Calif.) and 60 pM mifepristone (to induce expression of hT1R1/hT1R3 (see e.g., International Publication No. WO 03/001876 A2).
I-17 cells were grown for 48 hours at 37° C. 1-17 cells were then loaded with the calcium dye Fluo-3AM (Molecular Probes, Eugene, Oreg.), 4 μM in a phosphate buffered saline (D-PBS) (Invitrogen, Carlsbad, Calif.), for 1.5 hours at room temperature. After replacement with 25 μl D-PBS, stimulation was performed in the FLIPR instrument and at room temperature by the addition of 25 μl D-PBS supplemented with different stimuli at concentrations corresponding to twice the desired final level.
Receptor activity was quantified by determining the maximal fluorescence increases (using a 480 nm excitation and 535 nm emission) after normalization to basal fluorescence intensity measured before stimulation. For dose-responses analysis, stimuli were presented in duplicates at 10 different concentrations ranging from 1.5 nM to 3 μM.
Activities were normalized to the response obtained with 60 mM monosodium glutamate, a concentration that elicits maximum receptor response. EC50s (concentration of compound that causes 50% activation of receptor) were determined using a non-linear regression algorithm, where the Hill slope, bottom asymptotes and top asymptotes were allow to vary. Identical results were obtained when analyzing the dose-response data using commercially available software for non-linear regression analysis such as GraphPad PRISM (San Diego, Calif.).
Experiments were also conducted to determine if test compounds can enhance the effect of monosodium glutamate on hT1R1/hT1R3 activity. In this assay, increasing concentrations of monosodium glutamate (ranging from 12 μM to 81 mM) were presented, in duplicates, in the presence or absence of a fixed concentration of the test compound. Typical compound concentrations tested were 100 μM, 30 μM, 10 μM, 3 μM, 1 μM, 0.3 μM, 0.1 μM and 0.03 μM. The relative efficacy of compounds at enhancing the receptor was determined by the calculating the magnitude of a shift in the EC50 for monosodium glutamate.
Enhancement was defined as a ratio (EC50R) corresponding to the EC50 of monosodium glutamate, determined in the absence of the test compound, divided by the EC50 of monosodium glutamate, determined in the presence of the test compound. In some embodiments, compounds have an EC50R between about 0.7 and about 100. In other embodiments, compounds have an EC50R between about 1.25 and about 75. In still other embodiments, compounds have an EC50R between about 1.50 and about 60. Assay results for compounds are disclosed in the table below.

un-induced I-17 cells = assay: FLIPR assay on un-induced I-17 cells (no receptor expression); type: cell-based; conditions: monosodium glutamate
Experimental: In order to determine the dependency of hT1R1/hT1R3 for the cell response to different stimuli, selected compounds were subjected to a similar analysis on I-17 cells that had not been induced for receptor expression with mifepristone (designated as un-induced I-17 cells). […] Compounds were presented to un-induced umami cells at […]—or three times the maximum stimulation used in the dose-response analysis.

EC50 ratio (hT1R1/hT1R3; test compound 30 μM) | EC50 ratio (hT1R1/hT1R3; test compound 100 μM) | SMILES | functional response in FLIPR assay (un-induced I-17 cells)
1.67 | 12.91 | COc1ccccc1C(=O)Nc1nc(O)c2ncn([C@@H]3O[C@H](COP(=O)(O)O)[C@@H](O)[C@H]3O)c2n1 [Compound 1] | –
1.07 | 1.19 | Cc1cccc(C(=O)Nc2nc(O)c3ncn([C@@H]4O[C@H](COP(=O)(O)O)[C@@H](O)[C@H]4O)c3n2)c1 [Compound 4] | –
– | – | N[C@@H](CCC(=O)O)C(=O)[O-].[Na+] [monosodium glutamate] | do not show any functional response
1.21 | 2.22 | O=C(COc1ccccc1)Nc1nc(O)c2ncn([C@@H]3O[C@H](COP(=O)(O)O)[C@@H](O)[C@H]3O)c2n1 [Compound 5] | –
